9 compounds from ChEMBL document CHEMBL1145646, “New anti-inflammatory ergostane-type ecdysteroids from the sclerotium of Polyporus umbellatus” (2008) can be followed below.

The test system of this assay is Mus musculus. In words: Inhibition of TPA-induced inflammation in mouse assessed per ear by edema assay. The assay is classed as functional.

As for `CC(C)C(C)/C=C/[C@@H](C)[C@H]1CC[C@H]2C3=C[C@@H](O)[C@@]4(O)C[C@@H](O)CC[C@]4(C)[C@H]3CC[C@]12C` (some centres undefined), the ID50 was 0.666 µmol/ear.

With `C=C(C[C@@H](O)[C@@H](C)[C@H]1CC[C@@]2(O)C3=CC(=O)[C@@H]4C[C@@H](O)[C@@H](O)C[C@]4(C)[C@H]3CC[C@]12C)C(C)C` [POLYPORUSTERONE G], the ID50 stood at 0.207 µmol/ear.

With `COc1ccc2c(c1)c(CC(=O)O)c(C)n2C(=O)c1ccc(Cl)cc1` [INDOMETHACIN], the ID50 stood at 0.838 µmol/ear.

The compound `CC(C)C(C)C[C@@H](O)[C@](C)(O)[C@H]1[C@@H](O)C[C@@]2(O)C3=CC(=O)[C@@H]4C[C@@H](O)[C@@H](O)C[C@]4(C)[C@H]3CC[C@]12C` (some centres undefined) [POLYPOROID C] gave an ID50 of 0.184 µmol/ear.

As for `CC(C)C(C)C1O[C@H]1[C@](C)(O)[C@H]1CC[C@@]2(O)C3=CC(=O)[C@@H]4C[C@@H](O)[C@@H](O)C[C@]4(C)[C@H]3CC[C@]12C` (some centres undefined) [POLYPORUSTERONE C], the ID50 came out at 0.289 µmol/ear.

For `CC(C)C(C)C[C@@H](O)[C@](C)(O)[C@H]1CC[C@@]2(O)C3=CC(=O)[C@@H]4C[C@@H](O)[C@@H](O)C[C@]4(C)[C@H]3CC[C@]12C` (some centres undefined) [POLYPORUSTERONE A], the ID50 came to 0.141 µmol/ear.

For the compound `C[C@@H]1[C@H]([C@@H](O)[C@](C)(O)[C@H]2CC[C@@]3(O)C4=CC(=O)[C@@H]5C[C@@H](O)[C@@H](O)C[C@]5(C)[C@H]4CC[C@]23C)OC[C@H]1C` [POLYPOROID B], the ID50 came out at 0.682 µmol/ear.

Compound `CC(C)C(C)[C@H](O)[C@@H]1O[C@H]2C[C@@]3(O)C4=CC(=O)[C@@H]5C[C@@H](O)[C@@H](O)C[C@]5(C)[C@H]4CC[C@]3(C)[C@H]2[C@@]1(C)O` (some centres undefined) [POLYPOROID A] gave an ID50 of 0.531 µmol/ear.

In the case of `C=C(C[C@@H](O)[C@](C)(O)[C@H]1CC[C@@]2(O)C3=CC(=O)[C@@H]4C[C@@H](O)[C@@H](O)C[C@]4(C)[C@H]3CC[C@]12C)C(C)C` [POLYPORUSTERONE B], the ID50 was found to be 0.117 µmol/ear.
